From PubChem BioAssay (NCI)
Values joined by “and” are separate entries in the source; they are usually repeats but may differ in a detail not shown here. Identical values can stand only once.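 Each compound was tested at five concentrations against cells in 96-well plates for 48 hours. The concentration for 50% growth inhibition is given as GI50. Definition used: TGI = concentration required for complete inhibition of growth.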

Key:
Test in all cases: NCI tumour cell line growth inhibition, 48 h
A498 renal = tested on: A498 renal
BT-549 breast = tested on: BT-549 breast
DU-145 prostate = tested on: DU-145 prostate
HS 578T breast = tested on: HS 578T breast
KM12 colon = tested on: KM12 colon
MALME-3M melanoma = tested on: MALME-3M melanoma
MDA-N = tested on: MDA-N
OVCAR-4 ovarian = tested on: OVCAR-4 ovarian
SF-295 CNS = tested on: SF-295 CNS
SN12C renal = tested on: SN12C renal
SNB-19 CNS = tested on: SNB-19 CNS
TK-10 renal = tested on: TK-10 renal

Row | Structure (SMILES) | TGI (A498 renal) | TGI (BT-549 breast) | TGI (DU-145 prostate) [µM] | TGI (HS 578T breast) | TGI (KM12 colon) [µM] | TGI (MALME-3M melanoma) [µM] | TGI (MDA-N) [µM] | TGI (OVCAR-4 ovarian) | TGI (SF-295 CNS) [µM] | TGI (SN12C renal) [µM] | TGI (SNB-19 CNS) [µM] | TGI (TK-10 renal) | GI50 (MALME-3M melanoma) | GI50 (MDA-N) | GI50 (SF-295 CNS) | GI50 (SNB-19 CNS)
1 | COc1ccc(N2C(=O)C3c4[nH]c5ccc([N+](=O)[O-])cc5c4C4CCC(C(C)(C)C)CC4C3C2=O)cc1 (stereo unspecified) | 7.56 µM | > 100 µM | > 100 | > 100 µM | > 100 | > 100 | > 100 | > 100 µM | > 100 | 76.9 | > 100 | > 100 µM |  |  |  | 
2 | O=C1CC(C(O)CO)CC(=O)N1 (stereo unspecified) | > 100 µM | > 100 µM | > 100 | > 100 µM | > 100 | > 100 | > 100 |  | > 100 | > 100 | > 100 | > 100 µM |  |  |  | 
3 | N#Cc1c(N)[nH]c(=S)c(C#N)c1-c1cccc(Cl)c1 | > 100 µM | > 100 µM | > 100 | 94.1 µM | > 100 | > 100 | 37.8 | > 100 µM | > 100 | 56.3 | > 100 | > 100 µM |  |  |  | 
4 | COc1ccc(-c2c(C#N)c(S)n(C3OC(COC(C)=O)C(OC(C)=O)C(OC(C)=O)C3OC(C)=O)c(=O)c2C#N)cc1 (stereo unspecified) | 90.5 µM and 77.3 µM | 74.4 µM and 79 µM | > 100 | 93.7 µM and 95.5 µM | > 100 | > 100 | > 100 | > 100 µM and 77.6 µM | > 100 | > 100 | > 100 | > 100 µM and 92.2 µM | 77.1 µM and 37.7 µM | > 100 µM and 34.8 µM | 36.1 µM and 87.1 µM | 34.1 µM and 75.3 µM
5 | c1sc(NC2=NCCO2)c2c1CCCC2 | > 100 µM | > 100 µM | > 100 | > 100 µM | > 100 | > 100 | > 100 | > 100 µM | > 100 |  | > 100 | > 100 µM |  |  |  | 
6 | COc1ccc(-c2c(C#N)c(N)n(C3OC(CO)C(O)C(O)C3O)c(=S)c2C#N)cc1 (stereo unspecified) | > 100 µM | > 100 µM | > 100 | 47.4 µM | > 100 | > 100 | > 100 | > 100 µM | > 100 | > 100 | > 100 | > 100 µM |  |  | 64.7 µM and 22.3 µM | 
7 | C[C@]12OC[C@H](c3ccccc3)N1C(=O)C1[C@H]2CC12SCCS2 (stereo partly specified) | > 100 µM | > 100 µM | > 100 | > 100 µM | > 100 | > 100 | > 100 | > 100 µM | > 100 | > 100 | > 100 | > 100 µM |  |  |  | 
8 | Cc1c(S(=O)(=O)c2ccccc2)c(N)n(Cc2ccccc2)c1C | > 100 µM | > 100 µM | > 100 | > 100 µM | > 100 | > 100 | > 100 | > 100 µM | > 100 | > 100 | > 100 | > 100 µM |  |  |  | 
9 | Cc1cccc(N2C(=O)C3ON(C(C(N)=O)c4ccccc4)C(c4c5ccccc5c(Cl)c5ccccc45)C3C2=O)c1C (stereo unspecified) | 32.2 µM | 22.6 µM | 43.2 | > 50 µM | 8.08 | 34.7 | 10 | 25.3 µM | 23 | 15.6 | 18.4 | 25.3 µM |  |  |  | 
